Values quoted from earlier work as cited in article PMC7855644 (Journal of pharmaceutical sciences, 2020).
Where no end group is shown, it is not given here.

Test system: blood brain barrier

In vivo transcytosis: lack of in vivo transcytosis
Substance: TFFYGGSRGRRNNFRTEEY-NH2 [Peptide A7]
